Source: ChEMBL document CHEMBL3745649, “Structure-activity relationship study of anticancer thymidine-quinoxaline conjugates under the low radiance of long wavelength ultraviolet light for photodynamic therapy” (Eur J Med Chem, 2016)
Activity calls are given as the source filed them. No cut-off for these calls is given here.

Legend:
[1] = Photocytotoxicity against human Bel7402 cells assessed as cell viability at 10 uM preincubated for 5 hrs with cells followed by white light irradiation at 0.015 mW/cm'2 for 20 mins measured after 48 hrs by CCK8 assay relative to control; assay type: functional; settings: Bel-7402, light or radiation study, read-out: Activity
[2] = Induction of apoptosis in human PANC1 cells assessed as necrotic cells at 2 uM after 24 hrs by Annexin V-FITC/propidium iodide staining-based flow cytometric analysis in absence of UVA-1 irradiation (reference value: 0.5%); assay type: cell-based; settings: panc-1, 24 h
PANC-1 [3] = test: Photocytotoxicity against human PANC1 cells assessed as production of reactive oxygen stress at 5 uM preincubated for 5 hrs followed by UVA-1 irradiation at 3 mW/cm'2 for 20 mins by DCFH-DA based fluorescence microscopic analysis; assay type: functional, cell-based
PANC-1 [4] = test: Photocytotoxicity against human PANC1 cells assessed as production of reactive oxygen stress at 5 uM preincubated for 5 hrs followed by UVA-1 irradiation at 3 mW/cm'2 for 20 mins measured after 5 hrs by HPLC analysis; assay type: functional, cell-based
[5] = Induction of apoptosis in human PANC1 cells assessed as viable cells at 2 uM after 24 hrs by Annexin V-FITC/propidium iodide staining-based flow cytometric analysis in absence of UVA-1 irradiation (reference value: 88.6%); assay type: cell-based, PANC-1; settings: read-out: Activity
[6] = Dark cytotoxicity against human PANC1 cells assessed as production of reactive oxygen stress at 5 uM after 5 hrs by DCFH-DA based fluorescence microscopic analysis in absence of UVA-1 irradiation; assay type: cell-based; settings: panc-1, 5 h
[7] = Photocytotoxicity against human PANC1 cells assessed as cell viability at 10 uM preincubated for 5 hrs with cells followed by white light irradiation at 0.015 mW/cm'2 for 20 mins measured after 48 hrs by CCK8 assay relative to control; assay type: functional; settings: PANC-1, light or radiation study, read-out: Activity
[8] = Induction of apoptosis in human PANC1 cells assessed as late apoptotic cells at 2 uM after 24 hrs by Annexin V-FITC/propidium iodide staining-based flow cytometric analysis in absence of UVA-1 irradiation (reference value: 1.5%); assay type: cell-based; settings: panc-1, 24 h
[9] = Photocytotoxicity against human Bel7402 cells assessed as cell viability preincubated for 5 hrs with cells followed by white light irradiation at 0.015 mW/cm'2 for 20 mins measured after 48 hrs by CCK8 assay; assay type: functional, cell-based; settings: Bel-7402, light or radiation study
Bel-7402 [10] = test: Photocytotoxicity against human Bel7402 cells assessed as cell viability pretreated with UVA-1 irradiation at 3.0 mW/cm'2 for 20 mins followed by cell addition measured after 48 hrs by CCK8 assay; assay type: functional, cell-based
[11] = Retention time of the compound at 5 uM by HPLC analysis; assay type: physicochemical
[12] = Photocytotoxicity against human Bel7402 cells assessed as cell viability preincubated for 5 hrs with cells followed by UVA-1 irradiation at 3.0 mW/cm'2 for 20 mins measured after 48 hrs by CCK8 assay; assay type: functional, cell-based; settings: Bel-7402, light or radiation study
[13] = Photocytotoxicity against human PANC1 cells assessed as cell viability preincubated for 5 hrs followed by UVA-1 irradiation at 5.4 mW/cm'2 for 20 mins measured after 48 hrs by CCK8 assay; assay type: functional, cell-based; settings: PANC-1, light or radiation study
PANC-1 [14] = test: Photocytotoxicity against human PANC1 cells assessed as cell viability pretreated with UVA-1 irradiation at 3.0 mW/cm'2 for 20 mins followed by cell addition measured after 48 hrs by CCK8 assay; assay type: functional, cell-based
[15] = Dark toxicity against human Bel7402 cells assessed as cell viability after 53 hrs by CCK8 assay in absence of UVA-1 irradiation; assay type: cell-based, Bel-7402
Bel-7402 [16] = test: Ratio of EC50 for human Bel7402 cells in presence of UVA-1 irradiation at 0.85 mW/cm'2 to EC50 for human Bel7402 cells in presence of UVA-1 irradiation at 3 mW/cm'2; assay type: functional
Bel-7402 [17] = test: Photocytotoxicity against human Bel7402 cells assessed as cell viability preincubated for 24 hrs with cells followed by UVA-1 irradiation for 20 mins at 3.0 mW/cm'2 measured after 48 hrs by CCK8 assay; assay type: functional, cell-based
PANC-1 [18] = test: Photocytotoxicity against human PANC1 cells assessed as production of reactive oxygen stress at 5 uM preincubated for 5 hrs followed by UVA-1 irradiation at 0.85 mW/cm'2 for 20 mins measured for 4 to 10 mins by DCFH-DA based fluorescence microscopic analysis; assay type: functional, cell-based
[19] = Dark toxicity against human PANC1 cells assessed as cell viability after 53 hrs by CCK8 assay in absence of UVA-1 irradiation; assay type: cell-based, PANC-1
PANC-1 [20] = test: Induction of apoptosis in human PANC1 cells assessed as early apoptotic cells at 2 uM preincubated for 5 hrs followed by UVA-1 irradiation at 3 mW/cm'2 for 20 mins measured after 24 hrs by Annexin V-FITC/propidium iodide staining-based flow cytometric analysis (reference value: 7.4%); assay type: functional
[21] = Retention time of the compound in human PANC1 cells at 5 uM after 5 hrs by HPLC analysis in absence of UVA-1 irradiation; assay type: ADME, cell-based; settings: panc-1, 5 h
[22] = Photocytotoxicity against human PANC1 cells assessed as cell viability preincubated for 5 hrs followed by UVA-1 irradiation at 0.85 mW/cm'2 for 20 mins measured after 48 hrs by CCK8 assay; assay type: functional, cell-based; settings: PANC-1, light or radiation study
PANC-1 [23] = test: Induction of apoptosis in human PANC1 cells assessed as necrotic cells at 2 uM preincubated for 5 hrs followed by UVA-1 irradiation at 3 mW/cm'2 for 20 mins measured after 24 hrs by Annexin V-FITC/propidium iodide staining-based flow cytometric analysis (reference value: 0.3%); assay type: functional
[24] = Photocytotoxicity against human PANC1 cells assessed as cell viability preincubated for 5 hrs with cells followed by white light irradiation at 0.015 mW/cm'2 for 20 mins measured after 48 hrs by CCK8 assay; assay type: functional, cell-based; settings: PANC-1, light or radiation study
PANC-1 [25] = test: Photocytotoxicity against human PANC1 cells assessed as cell viability preincubated for 24 hrs with cells followed by UVA-1 irradiation for 20 mins at 3.0 mW/cm'2 measured after 48 hrs by CCK8 assay; assay type: functional, cell-based
[26] = Photocytotoxicity against human PANC1 cells assessed as cell viability preincubated for 5 hrs with cells followed by UVA-1 irradiation at 3.0 mW/cm'2 for 20 mins measured after 48 hrs by CCK8 assay; assay type: functional, cell-based; settings: PANC-1, light or radiation study
Bel-7402 [27] = test: Potency index, ratio of sunitinib EC50 to compound EC50 for human Bel7402 cells in presence of UVA-1 irradiation at 3 mW/cm'2; assay type: functional
[28] = Retention time of the compound in human PANC1 cells at 5 uM preincubated for 5 hrs followed by UVA-1 irradiation at 3 mW/cm'2 for 20 mins measured after 5 hrs by HPLC analysis; assay type: ADME, cell-based; settings: panc-1, 5 µM
[29] = Photocytotoxicity against human Bel7402 cells assessed as cell viability preincubated for 5 hrs followed by UVA-1 irradiation at 0.85 mW/cm'2 for 20 mins measured after 48 hrs by CCK8 assay; assay type: functional, cell-based; settings: Bel-7402, light or radiation study
Bel-7402 [30] = test: Photocytotoxicity against human Bel7402 cells assessed as production of reactive oxygen stress at 5 uM preincubated for 5 hrs followed by UVA-1 irradiation at 0.85 mW/cm'2 for 20 mins measured for 4 to 10 mins by DCFH-DA based fluorescence microscopic analysis; assay type: functional, cell-based
PANC-1 [31] = test: Ratio of EC50 for human PANC1 cells in presence of UVA-1 irradiation at 0.85 mW/cm'2 to EC50 for human PANC1 cells in presence of UVA-1 irradiation at 3 mW/cm'2; assay type: functional
PANC-1 [32] = test: Induction of apoptosis in human PANC1 cells assessed as late apoptotic cells at 2 uM preincubated for 5 hrs followed by UVA-1 irradiation at 3 mW/cm'2 for 20 mins measured after 24 hrs by Annexin V-FITC/propidium iodide staining-based flow cytometric analysis (reference value: 1.3%); assay type: functional
PANC-1 [33] = test: Potency index, ratio of sunitinib EC50 to compound EC50 for human PANC1 cells in presence of UVA-1 irradiation at 3 mW/cm'2; assay type: functional
[34] = Induction of apoptosis in human PANC1 cells assessed as early apoptotic cells at 2 uM after 24 hrs by Annexin V-FITC/propidium iodide staining-based flow cytometric analysis in absence of UVA-1 irradiation (reference value: 9.4%); assay type: cell-based; settings: panc-1, 24 h
PANC-1 [35] = test: Induction of apoptosis in human PANC1 cells assessed as viable cells at 2 uM preincubated for 5 hrs followed by UVA-1 irradiation at 3 mW/cm'2 for 20 mins measured after 24 hrs by Annexin V-FITC/propidium iodide staining-based flow cytometric analysis (reference value: 91%); assay type: functional; settings: PANC-1, light or radiation study, read-out: Activity
[36] = Photocytotoxicity against human Bel7402 cells assessed as cell viability preincubated for 5 hrs followed by UVA-1 irradiation at 5.4 mW/cm'2 for 20 mins measured after 48 hrs by CCK8 assay; assay type: functional, cell-based; settings: Bel-7402, light or radiation study

Retention_time [11]: 68 min | Retention_time [21]: 68 min | Retention_time [28]: 68 min
SMILES: Cc1cn([C@H]2C[C@H](n3cc(CNC(=O)CCCCCOc4ccc5c(c4)-c4nc6cc(Cl)c(Cl)cc6nc4[C@@H]4C(C)(C)CCC[C@]54C)nn3)[C@@H](CO)O2)c(=O)[nH]c1=O
viability at 10 µM [1]: < 40% | Activity [2]: 0.4% | Activity (PANC-1 [3]): Active | Activity (PANC-1 [4]): Active | viability at 24 h, 2 µM [5]: 89.4% | Activity [6]: Non-toxic | viability at 10 µM [7]: < 40% | Activity [8]: 1.4% | EC50 [9]: > 10 µM | Activity (Bel-7402 [10]): inactive | EC50 [12]: 0.67 µM | EC50 [13]: 1.2 µM | Activity (PANC-1 [14]): inactive | EC50 at 53 h [15]: > 20 µM | Ratio EC50 (Bel-7402 [16]): 3 | Activity (Bel-7402 [17]): Active | Activity (PANC-1 [18]): Active | EC50 at 53 h [19]: ≥ 50 µM | Activity (PANC-1 [20]): 11.9% | EC50 [22]: 5.7 µM | Activity (PANC-1 [23]): 3.5% | EC50 [24]: > 10 µM | Activity (PANC-1 [25]): Active | EC50 [26]: 1.3 µM | Ratio EC50 (Bel-7402 [27]): 10 | EC50 [29]: 2 µM | Activity (Bel-7402 [30]): Active | Ratio EC50 (PANC-1 [31]): 4 | Activity (PANC-1 [32]): 44.1% | Ratio EC50 (PANC-1 [33]): 20 | Activity [34]: 8.8% | viability at 2 µM (PANC-1 [35]): 40.5% | EC50 [36]: 0.61 µM
